Measured values published in patent US20100003217A1, “Compounds and Pharmaceutical Compositions for the Treatment of Viral Infections” (priority 2008, published 2010).
Where “and” joins values, the source holds several entries; their conditions need not be identical. Equal entries are not always repeated.

Key:
[1] = Incubation with monkey liver cytosol; assay type: in vitro ADME; details: monkey cytosol 1 mg/mL, 2 hours, 10 μM
Description: (§1) Pooled liver cytosol (1.0 mg protein/mL) suspended in incubation buffer (0.1 M potassium phosphate, pH 7.4) was incubated for 2 hours at 37° C. with 10 μM Compound 1 from a stock solution in DMSO (final DMSO concentration was 0.1%); reaction was initiated with the addition of test article. Incubations with no protein served as control. Reactions were terminated by the addition of 0.1 mL of stop solution (acetonitrile). The samples were vortex-mixed for 30 sec and then centrifuged at 10,000×g for 10 min. The supernatant was dried using a Labconco CentriVap concentrator and the dry residue reconstituted in water, transferred to an HPLC glass vial and analyzed by HPLC-UV method 2 (described above).
(§2) Metabolic stability of the proposed metabolites was conducted by incubating the chemically synthesized standards Compound 2, Compound 4 and Compound 3 as described above for Compound 1. When possible, formation of Compound 5 was verified by incubating samples with alkaline phosphatase (10 U) for 60 min at 37° C.

pig liver esterase = experiment: Incubation with pig liver esterase; assay type: in vitro ADME
Description: as §1, with “Pig” for “Pooled”, “esterase (14 U)” for “cytosol (1.0 mg protein/mL)”, “60 min” for “2 hours”, “controls.” for “control.”
as §2

[2] = Stability in rat liver microsomes; assay type: in vitro ADME; details: 10 μM; for % Residual Compound 1: rat liver microsomes 1 mg/mL
Description: (§3) Disappearance of parent Compound 1 was used to evaluate the in vitro metabolism thereof. Relative levels of unchanged Compound 1 were measured by HPLC-UV method 1. Residual Compound 1 is reported as percent difference from time zero or control. The HPLC-UV system was as follows:
(§4) Incubations with liver microsomes or cytosol were conducted in a final volume of 0.1 mL per incubation time point. […] DMSO (final DMSO concentration was 0.1%) was incubated at 37° C. from 0-60 min with pooled microsomal protein (1.0 mg/mL), suspended in incubation buffer (0.1 M potassium phosphate, pH 7.4, 5 mM MgCl2, and 0.1 mM EDTA). The microsomal reaction was initiated by the addition of NADPH (3 mM final concentration). Incubations with (a) no protein or (b) no NADPH served as controls. Reactions were terminated by the addition of 0.2 mL of stop solution (acetonitrile). The samples were vortex-mixed for 30 sec and then centrifuged at 10,000×g for 10 min. The supernatant was dried using a Labconco CentriVap concentrator and the dry residue reconstituted in water, transferred to an HPLC glass vial and analyzed by HPLC-UV method 1 (described above).
as §2

[3] = Metabolite profile in rat urine; assay type: in vivo, male Sprague-Dawley rats; details: for Percent of Dose, Urine 0-24 h: after [14C]Compound 1; for % AD, estimated: from single animal HPLC distribution and mean % AD
Description: Pooled urine samples were prepared for Groups 1C and 2C by mixing a fixed percent of the total volume for all four animals from the selected time points. For Group 1C, samples of the 1-, 2-, 6-, and 24-h collection intervals were pooled. For Group 2C, a pool of samples from all four animals was prepared for the 24 h collection intervals only. For 1-, 2-, and 6 h collection intervals, a urine sample of a single animal of Group 2A or 2B was used for analysis. All samples were brought to room temperature and vortexed briefly. The samples were diluted as necessary (2- to 20-fold) with appropriate aqueous mobile phase for the selected HPLC method. The pooled and diluted samples from the 24 h collection interval were centrifuged at 2040×g for 10 minutes. All other samples were analyzed without centrifugation. HPLC method 1 was used for HPLC profiling. Selected samples were analyzed by HPLC method 2 for comparison with the metabolite profile generated by microsomal and hepatocyte incubations (Examples 14 and 15) and with the metabolite profile of liver extracts.
Percent of the administered dose (% AD) for parent drug and each metabolite at each collection period=(% of the total radioactivity in the sample attributed to the metabolite)*(total radioactivity expressed as % of the administered dose, recovered during the corresponding collection period).
HPLC analyses of pooled urine samples of all time points were conducted for Group 1C. Metabolites R1, R2, R3, R4, R5, R6, R7 and R8 were characterized based on retention time.
For the PO dose group, a pooled urine sample from the 24-h collection time was analyzed. For 1-, 2-, and 6-h collection times, the majority of the samples had been used for radioanalysis. The remaining samples were insufficient for proportional pooling. Therefore, single animal samples of […] groups were used for HPLC profiling. Metabolites R^1, R^2, R^3, R^4, R^5, R^6, R^7 and R^8 were characterized based on retention time.
Table 50 contains data from single animal samples and pooled samples. To estimate overall distribution of urinary metabolites, it was assumed that the profile from a single animal is reflective of the overall average metabolite profile. Therefore, HPLC distribution data from single animals was used to calculate the percentage of administered dose excreted as various metabolites during the 1-, 2-, and 6-h collection intervals. Metabolites R1, R2, R3, R4, R5, R6, R7 and R8 were characterized based on retention time.

[4] = Excretion of administered dose in rat urine and feces; assay type: in vivo, male Sprague-Dawley rats; details: IV; 24 h after [14C]Compound 1
[5] = Stability in monkey liver microsomes; assay type: in vitro ADME; details: 10 μM; for % Residual Compound 1: monkey liver microsomes 1 mg/mL
Description: as §3, §4, §2

[6] = PO dose urine, 1 h collection, single animal (#15, Group 2A)
[7] = PO dose urine, 2 h collection, single animal (#20, Group 2B)
[8] = estimated profile table, group 2C (PO dose) urine, 24 h
[9] = group 1C (IV dose) pooled urine, 1 h collection
[10] = group 1C (IV dose) pooled urine, 2 h collection
[11] = group 1C (IV dose) pooled urine, 6 h collection
[12] = group 1C (IV dose) pooled urine, 24 h collection
[13] = group 2C (PO dose) pooled urine, 24 h collection

CC(C)(CO)C(=O)SCCOP(=O)(NCc1ccccc1)OC[C@H]1O[C@@H](n2cnc3c(=O)[nH]c(N)nc32)[C@](C)(O)[C@@H]1O (mixture of isomers) [Compound 1, 3-hydroxy-2,2-dimethyl-thiopropionic acid S-(2-{[(2R,3R,4R,5R)-5-(2-amino-6-oxo-1,6-dihydro-purin-9-yl)-3,4-dihydroxy-4-methyl-tetrahydro-furan-2-ylmethoxy]-benzylamino-phosphoryloxy}-ethyl) ester]
Residual compound following incubation with liver cytosol [1]: 100%
Residual compound following incubation with pig liver esterase (pig liver esterase; Esterase 14 U, 60 min, 10 μM): 75%
Compound 1 converted to Compound 2 (pig liver esterase; pig liver esterase, 60-min incubation): 25%
% Residual Compound 1 ([2]; 0 min, NADPH): 100%
% Residual Compound 1 ([2]; 0 min, No Cofactor): 100%
% Residual Compound 1 ([2]; 30 min, NADPH): 53%
% Residual Compound 1 ([2]; 30 min, No Cofactor): 103%
% Residual Compound 1 ([2]; 60 min, NADPH): 36%
% Residual Compound 1 ([2]; 60 min, No Cofactor): 103%
NADPH-dependent metabolism ([2]; rat liver microsomes, NADPH, 60 min): 64%
Total excretion (% AD), urine ([3]; IV (1C)): 26.1 % AD
Percent of Dose, Urine 0-24 h ([3]; IV): 26.1% of Dose
Percent of Dose, Urine 0-24 h ([3]; Oral): 0.02% of Dose
Total excretion (% AD), urine ([3]; PO (2C), urine data estimated): 0.02 % AD
% AD (percent of administered dose) [3, 6]: 0.06 % AD
% HPLC (percent of HPLC peak area in the sample extract) [3, 6]: 74.8%
% AD (percent of administered dose) [3, 7]: 0.01 % AD
% HPLC (percent of HPLC peak area in the sample extract) [3, 7]: 6.57%
% AD [3, 8]: 0.01 % AD
% HPLC (percent of HPLC peak area in the sample extract) [3, 8]: 0.30%
% of total urinary excretion, estimated ([3]; estimated profile, group 2C (PO dose) urine): 0.73%
% AD, estimated ([3]; estimated profile, group 2C (PO dose) urine, 1 h): 0.01 % AD
% HPLC (percent of HPLC peak area in the sample extract) ([3]; estimated profile, group 2C (PO dose) urine, 1 h, single animal % HPLC distribution): 74.8%
% AD, estimated ([3]; estimated profile, group 2C (PO dose) urine, 2 h): 0.003 % AD
% HPLC (percent of HPLC peak area in the sample extract) ([3]; estimated profile, group 2C (PO dose) urine, 2 h, single animal % HPLC distribution): 6.57%
Total % AD, estimated ([3]; estimated profile, group 2C (PO dose) urine, total of all collections): 0.02 % AD
% AD (percent of administered dose) [3, 9]: 21.39 % AD
% HPLC (percent of HPLC peak area in the sample extract) [3, 9]: 93.5%
% AD (percent of administered dose) [3, 10]: 2.50 % AD
% HPLC (percent of HPLC peak area in the sample extract) [3, 10]: 48.9%
% AD (percent of administered dose) [3, 11]: 0.71 % AD
% HPLC (percent of HPLC peak area in the sample extract) [3, 11]: 30.5%
% AD (percent of administered dose) [3, 12]: 1.51 % AD
% HPLC (percent of HPLC peak area in the sample extract) [3, 12]: 9.09%
% of total urinary excretion ([3]; group 1C (IV dose) urine): 55.6%
Total % AD ([3]; group 1C (IV dose) urine, total of all collections): 26.1 % AD
% AD (percent of administered dose) [3, 13]: 0.01 % AD
% HPLC (percent of HPLC peak area in the sample extract) [3, 13]: 0.30%
% of the total urinary excretion ([3]; rat urine, IV dose 50 mg/kg): 55.6%
urinary component, % of the administered dose (% AD) ([3]; rat urine, IV dose 50 mg/kg, 0-24 h, 50 mg/kg): 26.1 % AD and 26 % AD
urinary component, estimated % of the administered dose (% AD) ([3]; rat urine, PO dose 100 mg/kg, 0-24 h): 0.02 % AD
% of the total radioactivity eliminated via urine within one hour ([3]; rat urine, PO dose, 1-h time point): 74.8%
% of the total urinary excretion by 6 h ([3]; rat urine, PO dose, 6 h): 6.6%
Percent of Dose, Total (urine, feces and liver) [4]: 45.9% of Dose
% Residual Compound 1 ([5]; 0 min, NADPH): 100%
% Residual Compound 1 ([5]; 0 min, No Cofactor): 100%
% Residual Compound 1 ([5]; 30 min, NADPH): 0%
% Residual Compound 1 ([5]; 30 min, No Cofactor): 81%
% Residual Compound 1 ([5]; 60 min, NADPH): 0%
NADPH-dependent metabolism ([5]; monkey liver microsomes, NADPH, 30 min): 100%
